# From ChEMBL document CHEMBL5241092, “The antibacterial activity of fluoroquinolone derivatives: An update (2018-2021)” (2021)
# Tests used:
# Type in all cases: functional
# Staphylococcus aureus = test: Antibacterial activity against Staphylococcus aureus
# Klebsiella pneumoniae = test: Antibacterial activity against Klebsiella pneumoniae
# [1] = test system: Lactobacillus acidophilus; test: Antibacterial activity against Lactobacillus acidophilus
# Escherichia coli = test: Antibacterial activity against Escherichia coli
# Enterococcus faecalis = test: Antibacterial activity against Enterococcus faecalis
# Listeria monocytogenes = test: Antibacterial activity against Listeria monocytogenes
# [2] = test system: Yersinia pseudotuberculosis; test: Antibacterial activity against Yersinia pseudotuberculosis
# Pseudomonas aeruginosa = test: Antibacterial activity against Pseudomonas aeruginosa
# [3] = test system: Staphylococcus epidermidis; test: Antibacterial activity against Staphylococcus epidermidis
# Bacillus subtilis = test: Antibacterial activity against Bacillus subtilis
# Bacillus cereus = test: Antibacterial activity against Bacillus cereus
Compound,MIC (Staphylococcus aureus) [µg/mL],MIC (Klebsiella pneumoniae) [µg/mL],MIC [1] [µg/mL],MIC (Escherichia coli) [µg/mL],MIC (Enterococcus faecalis) [µg/mL],MIC (Listeria monocytogenes) [µg/mL],MIC [2] [µg/mL],MIC (Pseudomonas aeruginosa) [µg/mL],MIC [3] [µg/mL],MIC (Bacillus subtilis) [µg/mL],MIC (Bacillus cereus) [µg/mL],MIC90 (Staphylococcus aureus) [µg/mL],MIC90 (Escherichia coli) [µg/mL],MIC90 [3] [µg/mL],MIC90 (Pseudomonas aeruginosa) [µg/mL]
COc1c(N2C[C@H]3CCCN(S(=O)(=O)c4ccc([N+](=O)[O-])cc4)[C@H]3C2)c(F)cc2c(=O)c(C(=O)O)cn(C3CC3)c12,< 2.42,< 2.42,< 2.42,< 2.42,< 2.42,< 2.42,< 2.42,< 2.42,–,–,–,–,–,–,–
COc1ccc(CN2CCC[C@@H]3CN(c4c(F)cc5c(=O)c(C(=O)O)cn(C6CC6)c5c4OC)C[C@@H]32)cc1,< 2.39,< 2.39,< 2.39,< 2.39,< 2.39,< 2.39,< 2.39,< 2.39,–,–,–,–,–,–,–
O=C(CSC(=S)N1CCN(c2cc3c(cc2F)c(=O)c(C(=O)O)cn3C2CC2)CC1)Nc1cccc(Cl)c1,–,–,–,0.024,–,–,–,0.195,0.024,–,–,–,–,–,–
C=Cn1c(SCC(=O)N2CCN(c3cc4c(cc3F)c(=O)c(C(=O)O)cn4C3CC3)CC2)nnc1-c1ccccc1,1.7,1.7,–,1.7,–,–,–,1.42,–,–,–,–,–,–,–
CC(=O)C(C(C)=O)C(=O)c1cn(C2CC2)c2cc(N3CCN(/N=N/c4nc(C)cc(C)n4)CC3)c(F)cc2c1=O,0.015,–,–,–,–,–,–,–,0.015,0.015,–,–,–,–,–
COc1c(N2C[C@H]3CCCN(Cc4ccc(C)cc4)[C@H]3C2)c(F)cc2c(=O)c(C(=O)O)cn(C3CC3)c12,< 2.39,< 2.39,< 2.39,< 2.39,< 2.39,< 2.39,< 2.39,< 2.39,–,–,–,–,–,–,–
CCN1CCN(c2cc3c(cc2F)c(=O)c(C(=O)O)cn3CC)CC1,1.1,1.1,–,1.1,–,–,–,1.1,–,–,–,–,–,–,–
COc1c(N2C[C@H]3CCCN(C(=O)c4ccc([N+](=O)[O-])cc4)[C@H]3C2)c(F)cc2c(=O)c(C(=O)O)cn(C3CC3)c12,≤ 1.23,< 1.23,< 1.23,< 1.23,≤ 1.23,≤ 1.23,< 1.23,< 1.23,–,–,≤ 1.23,–,–,–,–
CCn1cc(C(=O)O)c(=O)c2cc(F)c(N3CCN(CCC(=O)Nc4ccc(/C(C)=N\OC)cc4)CC3)cc21,–,> 50,–,–,–,–,–,–,–,–,–,–,–,–,–
COc1c(N2C[C@H]3CCCN(Cc4ccc(Cl)cc4)[C@H]3C2)c(F)cc2c(=O)c(C(=O)O)cn(C3CC3)c12,< 2.39,< 2.39,< 2.39,< 2.39,< 2.39,< 2.39,< 2.39,< 2.39,–,–,–,–,–,–,–
COc1c(N2C[C@H]3CCCN(S(=O)(=O)c4ccc(Cl)cc4)[C@H]3C2)c(F)cc2c(=O)c(C(=O)O)cn(C3CC3)c12,< 2.42,< 2.42,< 2.42,< 2.42,< 2.42,< 2.42,< 2.42,< 2.42,–,–,–,–,–,–,–
CC[C@H](C)[C@H](NC(=O)[C@H](CCCCN)NC(=O)[C@H](CCCCN)NC(=O)[C@H](C)NC(=O)[C@H](CC(C)C)NC(=O)[C@H](C)NC(=O)[C@H](C)NC(=O)[C@H](CC(C)C)NC(=O)[C@H](C)NC(=O)[C@H](CCCCN)NC(=O)[C@H](CC(C)C)NC(=O)[C@H](CC(N)=O)NC(=O)[C@@H](NC(=O)[C@H](CCCCN)NC(=O)CNC(=O)[C@H](CC(C)C)NC(=O)[C@H](CC(C)C)NC(=O)[C@H](Cc1ccc(O)cc1)NC(=O)CNC(=O)[C@H](C)NC(=O)CCSSCCC(=O)N1CCN(c2cc3c(cc2F)c(=O)c(C(=O)O)cn3C2CC2)CC1)[C@@H](C)CC)C(=O)N[C@@H](CC(C)C)C(N)=O,–,–,–,–,–,–,–,–,–,–,–,0.025,0.025,0.025,0.025
CCOc1cc(OCC)nc(/N=N/N2CCN(c3cc4c(cc3F)c(=O)c(C(=O)C(C(=O)OC)C(=O)OC)cn4C3CC3)CC2)n1,0.015,–,–,–,–,–,–,–,0.015,0.015,–,–,–,–,–
COc1c(N2C[C@H]3CCCN(Cc4ccccc4)[C@H]3C2)c(F)cc2c(=O)c(C(=O)O)cn(C3CC3)c12,< 2.39,< 2.39,< 2.39,< 2.39,< 2.39,< 2.39,< 2.39,< 2.39,–,–,–,–,–,–,–
O=C(O)c1cn(C2CC2)c2cc(N3CCN(Cn4nc(-c5cccnc5)oc4=S)CC3)c(F)cc2c1=O,0.031,–,–,0.031,–,–,–,0.031,–,0.031,–,–,–,–,–
O=C(O)c1cn(-c2ccc(F)cc2)c2cc(N3CCN(C/C(=N/O)c4ccccc4)CC3)c(F)cc2c1=O,< 0.125,–,–,–,–,–,–,–,< 0.125,< 0.125,–,–,–,–,–
COc1c(N2C[C@H]3CCCN(S(=O)(=O)c4ccc(Br)cc4)[C@H]3C2)c(F)cc2c(=O)c(C(=O)O)cn(C3CC3)c12,< 2.42,< 2.42,< 2.42,< 2.42,< 2.42,< 2.42,< 2.42,< 2.42,–,–,–,–,–,–,–
